2 molecules from PMC5077133, “Towards Development of Small Molecule Lipid II Inhibitors as Novel Antibiotics” (PLoS ONE, 2016) can be followed below.

Series [1] concerns DNA synthesis in E. faecalis EF1509. Briefly: Macromolecular synthesis assay: DNA synthesis. The series is classed as cell-based. As to conditions: Enterococcus faecalis; E. faecalis EF1509, [3H]Thymidine incorporation; read-out: IC50 inhibition of DNA synthesis. The method, then: (§1) The effect of compounds on the macromolecular synthetic pathways of E. faecalis EF1509 were measured as follows: Cells were grown at 35°C overnight on Tryptic Soy Agar Broth (Remel, Lenexa, KS), and growth from the plate was used to inoculate 15 ml of Mueller Hinton Broth. The culture was grown to early exponential growth phase (OD600 = 0.2 to 0.3) while incubating in a shaker at 35°C and 150 rpm. For each macromolecular assay, the test agents were added at either 0, 0.25, 0.5, 1, 2, or 4, -fold their respective MIC values for E. faecalis EF1509.
(§2) For DNA and protein synthesis, 100 μl of cell culture reaching early exponential phase was added to triplicate wells containing various concentrations of test compound or control antibiotics (2.5 μl) at 40X the final concentration in 100% DMSO (0.1% methanol in water for Rifampicin). A 2.5% DMSO treated culture served as the “no drug” control for all experiments. Cells were added in 1.25X strength MHB to account for the volume of drug added to each reaction, or in M9 minimal medium for protein synthesis reactions. […] After washing five times with 200 μl per well of cold 5% TCA, the filters were allowed to dry, and then counted using a Packard Top Count microplate scintillation counter.

The subject of series [2] is A. baumanii ATCC 19606. Briefly: Antibacterial activity (MIC, broth dilution). It is filed as cell-based, Acinetobacter baumanii. The note with it: CLSI, in µg/mL. Put shortly: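 MIC determined by broth dilution following CLSI standards, using A. baumanii ATCC 19606.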
In series [3] the test system is E. faecalis EF1509. The series is described as follows: MIC for the strain used in macromolecular synthesis assays. The series is classed as cell-based. The note with it: Enterococcus faecalis. The method, then:
(§3) Determination of the Minimal Inhibitory Concentrations (MIC) by dilution was carried out by broth dilution according to CLSI standards.
as §1

Series [4] is described as follows: Lipid II binding by Surface Plasmon Resonance. The note with it: SPR, immobilized 3-Lipid II, 25°C. Put shortly: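 Farnesyl (3-isoprene) Lipid II amine-coupled (50 RUs) on CM5 chips. Compounds injected at 10 μM, 30 μl/min, 25°C, in 10 mM HEPES, 150 mM NaCl, 0.05% P20, pH 7.4 (± 3 mM EDTA), 10% DMSO. Signals corrected against control flow-cell; kinetics fitted from binding isotherms.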

The nature of series [5]: Pharmacokinetic study in mice. The arrangement: AUClast/D: unit not given here. As to conditions: for half-life / bioavailability: male, CD1, mouse. The series is classed as in vivo, male CD1 mice.
Series [6] concerns P. aeruginosa PA01. Briefly: Antibacterial activity (MIC, broth dilution). It is filed as cell-based. The note with it: CLSI. Here is the method: as §3
For series [7], the system named is K. pneumoniae NR-15411 (KPC). The series is described as follows: Antibacterial activity (MIC, broth dilution). The series is classed as cell-based. As to conditions: CLSI. The method, then: as §3
Series [8] relates to S. aureus MRSA 1094. Briefly: Antibacterial activity (MIC, broth dilution). The series is classed as cell-based. As to conditions: CLSI. Here is the method:
as §3

The test system of series [9] is E. aerogenes ATCC 13048. The series is described as follows: Antibacterial activity (MIC, broth dilution). It is filed as cell-based. As to conditions: CLSI. The method, then:
as §3

For series [10], the system named is K. pneumoniae NR-15410 (KPC). The series is described as follows: Antibacterial activity (MIC, broth dilution). It is filed as cell-based. As to conditions: CLSI. The method, then: as §3
The test system of series [11] is S. aureus HFH-30123 (MRSA). The series is described as follows: Antibacterial activity (MIC, broth dilution). It is filed as cell-based. As to conditions: CLSI. The method, then:
as §3

In series [12] the test system is P. aeruginosa X13273. Briefly: Antibacterial activity (MIC, broth dilution). The series is classed as cell-based. As to conditions: CLSI, in µg/mL. The method, then: as §3
Series [13] deals with E. cloacae ATCC 13047. Briefly: Antibacterial activity (MIC, broth dilution). It is filed as cell-based. The note with it: CLSI. Here is the method: as §3
Series [14] concerns protein synthesis in E. faecalis EF1509. Briefly: Macromolecular synthesis assay: protein synthesis. It is filed as cell-based. As to conditions: Enterococcus faecalis; E. faecalis EF1509, [3H]Leucine incorporation; read-out: IC50 inhibition of protein synthesis. The method, then:
as §1, §2

Where [15] appears, read: PO 5 mg/kg, male CD1 mice, 5 mg/kg.
The mark [16] stands for this setting: mouse, plasma, IV 2.5 mg/kg, male CD1 mice.
Where [17] appears, read: mouse, plasma, PO 5 mg/kg, male CD1 mice.

Each structure is given as a SMILES string. Like-named read-outs stand apart in the source and are kept apart here.

Take `CN(C)c1ccc(/C=C/c2cc(-c3ccc(Br)cc3)cc(-c3ccc(Br)cc3)[o+]2)cc1` [6jc48-1]: the half-maximal inhibitory concentration (IC50) in series [1] stood at 8.3 µg/mL. The “Antibacterial activity (MIC) A. baumanii ATCC 19606” value in series [2] was “>=64”. Also, in series [3], it took 4 µg/mL to inhibit growth (MIC). Besides, the Kd in series [4] came to 150 ± 30 nM. In [5] (IV […], male CD1 mice), this molecule came in with an AUClast/D of 536±47. In [5] (PO 5 mg/kg, male CD1 mice), this molecule yielded an AUCExtrap of 48.6%, an AUClast/D of 9.4 and a Vss_obs of 1.75 L/kg. For the same molecule, in series [5] (setting [15]), the “Finf (bioavailability)” value is reported as 2.54% and the T1/2 came to 2.78 h. Also, in series [5] (plasma, iv, […], male CD1 mice), the half-life was > 13 h. Also, the half-life in [5] (plasma, po, 5 mg/kg, PO 5 mg/kg, male CD1 mice) was ~3 h. For the same molecule, the bioavailability in series [5] (plasma, po, 5 mg/kg, PO 5 mg/kg, male CD1 mice, read-out: Finf (bioavailability)) was ~2.5%. The bioavailability in series [5] (plasma, po, 5 mg/kg, PO 5 mg/kg, male CD1 mice, read-out: Flast (bioavailability)) amounted to 1.9%. Besides, in series [5] (setting [16]), the AUC(0-inf) came to 1770 ± 120 ng·h/mL, the AUC(0-t) is 1340 ± 117 ng·h/mL, the Cmax turned out to be 1040 ± 323 ng/mL and the MRT was determined as 7.29 ± 0.27 h. Moreover, the clearance in [5] (mouse, plasma, IV 2.5 mg/kg, male CD1 mice, read-out: Cl_obs) came out at 23.6 ± 1.7 mL/min/kg. In series [5] (setting [17]), the AUC(0-inf) is 90 ng·h/mL, the AUC(0-t) came out at 46.9 ng·h/mL and the highest level (Cmax) was 19.1 ng/mL. In series [6], the Antibacterial activity (MIC) P. aeruginosa PA01 was ≥ 64 µg/mL. Also, in series [7], the Antibacterial activity (MIC) K. pneumoniae NR-15411 (KPC) was ≥ 64 µg/mL. The molecule also returned an Antibacterial activity (MIC) S. aureus MRSA 1094 in [8] of 32 µg/mL. The Antibacterial activity (MIC) E. aerogenes ATCC 13048 in series [9] was ≥ 64 µg/mL. In addition, the Antibacterial activity (MIC) K. pneumoniae NR-15410 (KPC) in [10] is ≥ 64 µg/mL. The Antibacterial activity (MIC) S. aureus HFH-30123 (MRSA) in series [11] was found to be 32 µg/mL. In series [12], the “Antibacterial activity (MIC) P. aeruginosa X13273” value is reported as “>=64”. Besides, the Antibacterial activity (MIC) E. cloacae ATCC 13047 in series [13] is ≥ 64 µg/mL. Further, the IC50 in series [14] was found to be 50.4 µg/mL.

On to `CN1/C(=C/C=C/c2cc(-c3ccccc3)cc(-c3ccccc3)[o+]2)C(C)(C)c2ccccc21` [BAS-00127538, (1-Methyl-2,4-diphenyl-6-((1E,3E)-3-(1,3,3-trimethylindolin-2-ylidene)prop-1-en-1-yl)pyryl-1-ium) tetrafluoroborate, reference compound], for which the IC50 in [1] is 1.8 µg/mL; in series [14], 1.6 µg/mL. In series [2], the “Antibacterial activity (MIC) A. baumanii ATCC 19606” value is given as 4. Also, the lowest concentration to inhibit growth in series [3] (MIC) was 2 µg/mL. Moreover, the affinity in series [4], expressed as Kd, was 1810 ± 300 nM. Further, the “Detection in plasma upon oral administration” value in series [5] (oral administration (not shown)) is “could not be detected”. In addition, the Antibacterial activity (MIC) P. aeruginosa PA01 in series [6] amounted to 64 µg/mL. In addition, the Antibacterial activity (MIC) K. pneumoniae NR-15411 (KPC) in series [7] amounted to 16 µg/mL. Besides, in [8], the Antibacterial activity (MIC) S. aureus MRSA 1094 came out at 0.5 µg/mL. The molecule further showed an Antibacterial activity (MIC) E. aerogenes ATCC 13048 in series [9] of 16 µg/mL. The same molecule showed an Antibacterial activity (MIC) K. pneumoniae NR-15410 (KPC) in series [10] of 8 µg/mL. In series [11], this molecule registered an Antibacterial activity (MIC) S. aureus HFH-30123 (MRSA) of 0.5 µg/mL. For the same molecule, in series [12], the “Antibacterial activity (MIC) P. aeruginosa X13273” value is listed as “>=64”. In addition, the Antibacterial activity (MIC) E. cloacae ATCC 13047 in [13] was 32 µg/mL.
